Data as given in patent US20110257206A1, “Combinations of Therapeutic Agents for Treating Cancer” (priority 2006, published 2011).

What was measured:
[1] = system: A549; experiment: Combination dose-matrix cell viability assay (CellTiter-Blue / alamar blue), synergy versus Loewe additivity, A549; type: cell-based; conditions: combination with Epothilone B; A549 cells; 72 hours; volume between measured and Loewe additive response surfaces; positive = synergistic
Procedure: The following Examples illustrate the combinations with epothilone B that show a syngeristic effect. All combinations were tested in three (3) distinct cell lines as part of this collaboration: A549, a model of non-small cell lung carcinoma; SKOV-3, a model of ovarian cancer; and SKMEL-28, a model of malignant melanoma.
Cells were cultured in T-175 flasks in complete medium (RPMI-1640, 10% FBS, 1% Penn/Strep) at 37° C. and 5% CO2. Cells were removed from the flask by brief treatment with 0.25% trypsin. Trypsin was inactivated with media and cell count was adjusted appropriately. Cells were then seeded into 384-well microtiter plates (35 μL) at 1500 (A549) or 3,000 (SKOV-3, SKMEL-28) cells/well using a multi-drop 16-24 hours prior to compound addition for general screening. […]
A solution of 5% CellTiter-Blue (Promega) viability dye in complete medium was dispensed to assay plates using a multi-drop or 384-well pipettor. […] Plates were allowed to cool to room temperature for one hour before reading fluorescence intensity at 590 nm after excitation at 540 nm in a Wallac Victor-V plate reader.
The measure of effect was the inhibition of cell viability using an alamar blue viability assay relative to the untreated level (vehicle alone). For untreated and treated levels U and T, a fractional inhibition I=1−T/U was calculated. […]

[2] = system: SKMEL28; experiment: Combination dose-matrix cell viability assay (CellTiter-Blue / alamar blue), synergy versus Loewe additivity, SKMEL-28; type: cell-based; conditions: combination with Epothilone B; SKMEL28 cells; 72 hours; volume between measured and Loewe additive response surfaces; positive = synergistic
Excerpt: The inhibition ranges from 0% at the untreated level to 100% when T=0.
This effectively calculates a volume between the measured and Loewe additive response surfaces, weighted towards high inhibition and corrected for varying dilution factors.

Compound: O=C1C(SCCO)=C(SCCO)C(=O)c2ccccc21 [1,4-Naphthalenedione, 2,3-bis[(2-hydroxyethyl)thio]-(9CI)]
- Synergy Score [1]: 1.233

Compound: Nc1nc(Cl)nc2c1ncn2C1CC(O)C(CO)O1 (stereo not drawn) [5-(6-amino-2-chloro-purin-9-yl)-2-(hydroxymethyl)oxolan-3-ol]
- Synergy Score [2]: 0.999

Compound: Butanedinitrile, bis[amino[(2-aminophenyl)thio]methylene]- (9CI)
- Synergy Score [1]: 1.199
